The values that follow come from patent US9220791B2, “Bispecific intracellular delivery vehicles” (University of Washington, priority 2008, dated 2015).

Common to all, as to type: cell-based, human
For series [1], the system named is HeLa cells. In words: Flow cytometry evaluation of mitochondrial membrane potential (JC-1 dye). The conditions noted are these: 2 hours, 10 μM peptide or equivalent conjugate or polymer alone, versus no treatment. The procedure:
(§1) HeLas, human cervical carcinoma cells (ATCC CCL-2), were maintained in minimum essential media (MEM) containing L-glutamine, 1% penicillin-streptomycin, and 10% FBS. Prior to experiments, HeLas were allowed to adhere overnight in 8-well chamber slides (20,000 cells/well) for microscopy or 96-well plates (10,000 cells/well) for other assays. Polymer-peptide conjugates and controls were added in MEM with 1% FBS.
Loss of mitochondrial membrane potential, a known indicator for apoptosis, was assessed using the JC-1 dye. […] HeLas were incubated for 2 hours with 10 μM peptide or equivalent conjugate or polymer alone. JC-1 was added at a final concentration of 5 μg/mL and incubated for 15 minutes. Cells were washed 2 times with PBS, trypsinized, and resuspended in 0.5% BSA for flow cytometric analysis. Percent of cells displaying mitochondrial depolarization was quantified based on the number of green fluorescent cells that were negative for red fluorescence. Here, a significant loss of red fluorescent JC-1 aggregates and therefore a loss in mitochondrial polarization was detected following treatment with both the Antp-BH3 peptide and the polymer peptide conjugate (FIG. 8A).
On the technique in general: Flow cytometry measures light scatter and fluorescence of single cells or particles in a stream.

Series [2] deals with HeLa cells. The series can be described thus: Lactate dehydrogenase (LDH) cytotoxicity assay. The conditions noted are these: HeLa cervical cancer cells.
Experimental: Bioconjugate efficacy for triggering tumor cell death was determined using a lactate dehydrogenase (LDH) cytotoxicity assay. At the end of each time point, cells were washed two times with PBS and then lysed with cell lysis buffer (100 μL/well, 20 mM Tris-HCl, pH 7.5, 150 mM NaCl, 1 mM Na2EDTA, 1 mM EGTA, 1% Triton, 2.5 mM sodium pyrophosphate, 1 mM β-glycerophosphate, 1 mM sodium orthovanadate) for 1 hour at 4° C. 20 μl of lysate from each sample was diluted into 80 μl PBS, and LDH was quantified by mixing with 100 μL of the LDH substrate solution. Following a 10 minute incubation, LDH was determined by measuring absorbance at 490 nm. Percent viability was expressed relative to samples receiving no treatment.
Another series concerns caspases 3 and 7. In words: Caspase 3/7 activity assay. The conditions noted are these: HeLa, 30 minutes, 25 μM peptide (alone or as conjugate) or equivalent polymer, relative to no treatment. As for the experimental part:
as §1
Caspase 3/7 activation was measured using a commercially available assay kit. This assay utilizes a profluorescent caspase 3/7 substrate that once enzymatically cleaved becomes fluorescent allowing for determination of relative enzyme activity using a fluorescent plate reader. Here, HeLas were incubated for 30 minutes with 25 μM peptide (alone or as polymer conjugate) in addition to polymer alone in a quantity equivalent to the conjugate samples. Afterwards, a caspase 3/7 fluorigenic indicator was added directly to the culture media for each sample. Plates were shaken for 1 hour and then assayed using a fluorescent plate reader. Data were expressed as percent caspase activity relative to samples receiving no treatment.

The test system of series [3] is HeLa cells. In words: Fluorescent microscopic analysis of conjugate endosomal escape. The conditions noted are these: Alexa-488 labeled peptide, 25 μM Antp-BH3, 15 minutes treatment. As for the experimental part:
as §1
An amine reactive Alexa-488 succinimidyl ester was mixed at a 1 to 1 molar ratio with the Antp-BH3 peptide in anhydrous dimethyl formamide (DMF). Unreacted fluorophore and organic solvent were removed using a PD 10 desalting column, and the fluorescently labeled peptide was lyophilized. Alexa-488 labeled Antp-BH3 was conjugated to the polymer as described above. Free peptide or polymer-peptide conjugate was applied to HeLas grown on chambered microscope slides at a concentration of 25 μM Antp-BH3. Cells were treated for 15 minutes, washed twice with PBS, and incubated in fresh media for an additional 30 minutes. The samples were washed again and fixed with 4% paraformaldehyde for 10 minutes at 37° C. Slides were mounted with ProLong Gold Antifade reagent containing DAPI and imaged using a fluorescent microscope.

The next series has as its system erythrocytes. The conditions noted are these: pH 5.8. As for the experimental part:
In order to assess the polymer's potential for endosomolytic activity, a membrane disruption assay was utilized to measure the capacity of the polymer to trigger pH-dependent disruption of lipid bilayer membranes as shown in FIG. 5. Whole human blood was drawn and centrifuged for plasma removal. The remaining erythrocytes were washed three times with 150 mM NaCl and resuspended into phosphate buffers corresponding to physiological (pH 7.4), early endosome (pH 6.6), and late endosome (pH 5.8) environments. The polymer (1-40 μg/mL) or 1% Triton X-100 was added to the erythrocyte suspensions and incubated for 1 hour at 37° C. Intact erythrocytes were pelleted via centrifugation, and the hemoglobin content within the supernatant was measured via absorbance at 541 nm. Percent hemolysis was determined relative to Triton X-100. Polymer hemolysis was quantified at concentrations ranging from 1-40 μg/mL relative to 1% v/v Triton X-100. This experiment was completed 2 times in triplicate, yielding similar results. The data shown represent a single experiment conducted in triplicate±standard deviation.

On to “NH2-RQIKIWFQNRRMKWKKMGQVGRQLAIIGDDINRRYDSC-COOH (H-RQIKIWFQNRRMKWKKMGQVGRQLAIIGDDINRRYDSC-OH) [Antp-BH3 peptide, cell internalizing form of the Bak-BH3 peptide fused to Antennapedia peptide, carboxy-terminal cysteine]”, for which the “increase in percent of cells exhibiting loss of mitochondrial polarity” value in the series on HeLa cells [1] is “approximately 4 fold”. Besides, the “HeLa cell death / treatment effect (qualitative)” value in the series with HeLa cells [2] is recorded as “negligible treatment effect”. In addition, in the series with caspases 3 and 7, the “caspase 3/7 activation” value is “approximately 2.5 fold”. In the series with HeLa cells [3], the “peptide intracellular localization (fluorescence pattern)” value is reported as “punctate staining”.

Take “Poly[HPMA]-b-[(PAA)(BMA)(DMAEMA)] [diblock copolymer]”: the hemolysis result in the series with erythrocytes is listed as “significant increase in hemolysis”.
